# What was measured:
# [1] = XRPD after storage in a closed vial at ambient conditions; assay type: physicochemical; settings: 31 days
# [2] = Moisture sorption/desorption (VTI SGA-100 moisture balance); assay type: physicochemical; settings: for hygroscopicity: from moisture sorption data, 5 to 95% RH; for Weight % chg: start, elapsed time 0.0 min, 25 deg C (RH 14.41% Form A, 9.87% Form B)
# Excerpt: The samples were not dried prior to analysis.
# [3] = Dehydration/desolvation under vacuum, XRPD; assay type: physicochemical
# Excerpt: The characterization of this weight loss as THF solvent is supported by the ^1H NMR data.
# [4] = system: human tumor xenografts; settings: cited from earlier work
# [5] = cited from earlier work
# [6] = Grinding of Form A, XRPD; assay type: physicochemical; settings: ground in an amalgamator for 10 minutes
# Excerpt: The XRPD data for the increased amorphous content material obtained by grinding a crystalline polymorph are plotted in FIG. 29. […] Further grinding is expected to increase the amorphous content and further broaden the XRPD pattern with the limit of the XRPD pattern being so broadened that it cannot be discerned above noise. When the XRPD pattern is broadened to the limit of being indiscernable, the material is no longer a crystalline material having increased amorphous content relative to unground crystallized material, but is a material that is wholly amorphous as defined herein.
# The sample was then analyzed using XRPD.
structure (smiles),measurement,setting,value
"CC[C@@]1(O)C(=O)OCc2c1cc1n(c2=O)Cc2cc3c([N+](=O)[O-])cccc3nc2-1 [Form B, 9-nitrocamptothecin]",stability of the crystalline form (XRPD pattern vs FIG. 5),[1],relatively stable
same,hysteresis between the hydration and dehydration curves,[2],essentially no hysterisis
same,hygroscopicity,[2],relatively hygroscopic
same,Weight % chg,[2],0.0000%
"CC[C@@]1(O)C(=O)OCc2c1cc1n(c2=O)Cc2cc3c([N+](=O)[O-])cccc3nc2-1 [Form C, 9-nitrocamptothecin]",form after attempt to desolvate under vacuum,[3],becomes amorphous
"CC[C@@]1(O)C(=O)OCc2c1cc1n(c2=O)Cc2cc3c([N+](=O)[O-])cccc3nc2-1 [9-nitrocamptothecin, 9-nitro-20(S)-camptothecin]",growth of human tumor xenografts,[4]; immunodeficient nude mice,inhibited the growth of human tumor xenografts
same,regression of established human tumor xenografts,[4]; nude mice,induced regression of human tumors
CC[C@@](O)(C(=O)[O-])c1cc2n(c(=O)c1CO)Cc1cc3ccccc3nc1-2.[Na+] [Sodium camptothecin],side effects in clinical trials,[5]; administered intravenously,unpredictable side effects such as myelosuppression and hemorrhagic cystitis
same,activity in clinical trials,"[5]; solubilized by sodium hydroxide in water, intravenous",found to have antineoplastic activity
"CC[C@@]1(O)C(=O)OCc2c1cc1n(c2=O)Cc2cc3c([N+](=O)[O-])cccc3nc2-1 [Form A, 9-nitrocamptothecin]",effect of grinding on crystallinity (XRPD),[6],losing crystallinity after grinding
same,hysteresis between the hydration and dehydration curves,[2],A small amount of hysteresis
same,hygroscopicity,[2],not hygroscopic
same,Weight % chg,[2],0.0000%
